Measured values taken from ChEMBL document CHEMBL4041467, “Synthesis of novel 15-membered 8a-azahomoerythromycin A acylides: Consequences of structural modification at the C-3 and C-6 position on antibacterial activity” (Eur J Med Chem, 2017).
Values after ≈ are worked out from the molar mass of the structure shown.

Experiments:
Format in all cases: functional
Haemophilus influenzae = test: Antibacterial activity against Haemophilus influenzae by agar microdilution method
Streptococcus pyogenes [1] = test: Antibacterial activity against constitutively macrolide/lincosamide/streptogramin B-resistant Streptococcus pyogenes by agar microdilution method
Staphylococcus aureus [2] = test: Antibacterial activity against constitutively macrolide/lincosamide/streptogramin B-resistant Staphylococcus aureus by agar microdilution method
Streptococcus pyogenes [3] = test: Antibacterial activity against Mef-mediated macrolide efflux resistant Streptococcus pyogenes by agar microdilution method
Staphylococcus aureus [4] = test: Antibacterial activity against erythromycin susceptible Staphylococcus aureus by agar microdilution method
Streptococcus pyogenes [5] = test: Antibacterial activity against erythromycin susceptible Streptococcus pyogenes by agar microdilution method
Streptococcus pneumoniae [6] = test: Antibacterial activity against Mef-mediated macrolide efflux resistant Streptococcus pneumoniae by agar microdilution method
Streptococcus pneumoniae [7] = test: Antibacterial activity against constitutively macrolide/lincosamide/streptogramin B-resistant Streptococcus pneumoniae by agar microdilution method
Streptococcus pneumoniae [8] = test: Antibacterial activity against erythromycin susceptible Streptococcus pneumoniae by agar microdilution method
Staphylococcus aureus [9] = test: Antibacterial activity against inducibly macrolide/lincosamide/streptogramin B-resistant Staphylococcus aureus by agar microdilution method

SMILES: C=CCO[C@]1(C)C[C@@H](C)NC(=O)[C@H](C)[C@@H](O)[C@](C)(O)[C@@H](CC)OC(=O)[C@H](C)[C@@H](OC(=O)CCN2CCN(C(=O)c3ccco3)CC2)[C@H](C)[C@H]1O[C@@H]1O[C@H](C)C[C@H](N(C)C)[C@H]1O
- MIC (Haemophilus influenzae): 8 µg/mL (≈ 9.25 µM)
- MIC (Streptococcus pyogenes [1]): > 64 µg/mL
- MIC (Staphylococcus aureus [2]): > 64 µg/mL
- MIC (Streptococcus pyogenes [3]): 4 µg/mL (≈ 4.62 µM)
- MIC (Staphylococcus aureus [4]): 2 µg/mL (≈ 2.31 µM)
- MIC (Streptococcus pyogenes [5]): 0.5 µg/mL (≈ 0.578 µM)
- MIC (Streptococcus pneumoniae [6]): 4 µg/mL (≈ 4.62 µM)
- MIC (Streptococcus pneumoniae [7]): > 64 µg/mL
- MIC (Streptococcus pneumoniae [8]): 0.5 µg/mL (≈ 0.578 µM)
- MIC (Staphylococcus aureus [9]): 2 µg/mL (≈ 2.31 µM)

SMILES: CC[C@H]1OC(=O)[C@H](C)C(=O)[C@H](C)[C@@H](O[C@@H]2O[C@H](C)C[C@H](N(C)C)[C@H]2O)[C@](C)(OCC=Cc2cnc3ccccc3c2)C[C@@H](C)C(=O)[C@H](C)[C@H]2NC(=O)O[C@@]21C [CETHROMYCIN]
- MIC (Haemophilus influenzae): 2 µg/mL (≈ 2.61 µM)
- MIC (Streptococcus pyogenes [1]): 1 µg/mL (≈ 1.31 µM)
- MIC (Staphylococcus aureus [2]): > 64 µg/mL
- MIC (Streptococcus pyogenes [3]): ≤ 0.125 µg/mL
- MIC (Staphylococcus aureus [4]): ≤ 0.125 µg/mL
- MIC (Streptococcus pyogenes [5]): ≤ 0.06 µg/mL
- MIC (Streptococcus pneumoniae [7]): ≤ 0.125 µg/mL
- MIC (Streptococcus pneumoniae [8]): ≤ 0.06 µg/mL
- MIC (Staphylococcus aureus [9]): 0.25 µg/mL (≈ 0.326 µM)

SMILES: C=CCO[C@]1(C)C[C@@H](C)NC(=O)[C@H](C)[C@@H](O)[C@](C)(O)[C@@H](CC)OC(=O)[C@H](C)[C@@H](OC(=O)CCN(C)CCc2ccccc2)[C@H](C)[C@H]1O[C@@H]1O[C@H](C)C[C@H](N(C)C)[C@H]1O
- MIC (Haemophilus influenzae): 16 µg/mL (≈ 19.5 µM)
- MIC (Streptococcus pyogenes [1]): > 64 µg/mL
- MIC (Staphylococcus aureus [2]): > 64 µg/mL
- MIC (Streptococcus pyogenes [3]): 8 µg/mL (≈ 9.76 µM)
- MIC (Staphylococcus aureus [4]): 4 µg/mL (≈ 4.88 µM)
- MIC (Streptococcus pyogenes [5]): 0.5 µg/mL (≈ 0.61 µM)
- MIC (Streptococcus pneumoniae [6]): 2 µg/mL (≈ 2.44 µM)
- MIC (Streptococcus pneumoniae [7]): > 64 µg/mL
- MIC (Streptococcus pneumoniae [8]): 0.25 µg/mL (≈ 0.305 µM)
- MIC (Staphylococcus aureus [9]): 4 µg/mL (≈ 4.88 µM)

SMILES: C=CCO[C@]1(C)C[C@@H](C)NC(=O)[C@H](C)[C@@H](O)[C@](C)(O)[C@@H](CC)OC(=O)[C@H](C)[C@@H](OC(=O)CCN2CCN(c3cc4c(cc3F)c(=O)c(C(=O)OC)cn4C3CC3)CC2)[C@H](C)[C@H]1O[C@@H]1O[C@H](C)C[C@H](N(C)C)[C@H]1O
- MIC (Haemophilus influenzae): 8 µg/mL (≈ 7.77 µM)
- MIC (Streptococcus pyogenes [1]): 32 µg/mL (≈ 31.1 µM)
- MIC (Staphylococcus aureus [2]): > 64 µg/mL
- MIC (Streptococcus pyogenes [3]): 8 µg/mL (≈ 7.77 µM)
- MIC (Staphylococcus aureus [4]): 2 µg/mL (≈ 1.94 µM)
- MIC (Streptococcus pyogenes [5]): 2 µg/mL (≈ 1.94 µM)
- MIC (Streptococcus pneumoniae [6]): 4 µg/mL (≈ 3.88 µM)
- MIC (Streptococcus pneumoniae [7]): 8 µg/mL (≈ 7.77 µM)
- MIC (Streptococcus pneumoniae [8]): 2 µg/mL (≈ 1.94 µM)
- MIC (Staphylococcus aureus [9]): 4 µg/mL (≈ 3.88 µM)

SMILES: COC(=O)c1cn(C2CC2)c2cc(N3CCNCC3)c(F)cc2c1=O
- MIC (Haemophilus influenzae): 16 µg/mL (≈ 46.3 µM)
- MIC (Streptococcus pyogenes [1]): > 64 µg/mL
- MIC (Staphylococcus aureus [2]): > 64 µg/mL
- MIC (Streptococcus pyogenes [3]): > 64 µg/mL
- MIC (Staphylococcus aureus [4]): > 64 µg/mL
- MIC (Streptococcus pyogenes [5]): > 64 µg/mL
- MIC (Streptococcus pneumoniae [6]): > 64 µg/mL
- MIC (Streptococcus pneumoniae [7]): > 64 µg/mL
- MIC (Streptococcus pneumoniae [8]): > 64 µg/mL
- MIC (Staphylococcus aureus [9]): > 64 µg/mL

SMILES: C=CCO[C@]1(C)C[C@@H](C)NC(=O)[C@H](C)[C@@H](O)[C@](C)(O)[C@@H](CC)OC(=O)[C@H](C)[C@@H](OC(=O)CCNC(C)Cc2ccccc2)[C@H](C)[C@H]1O[C@@H]1O[C@H](C)C[C@H](N(C)C)[C@H]1O (some centres not stated)
- MIC (Haemophilus influenzae): 8 µg/mL (≈ 9.76 µM)
- MIC (Streptococcus pyogenes [1]): > 64 µg/mL
- MIC (Staphylococcus aureus [2]): > 64 µg/mL
- MIC (Streptococcus pyogenes [3]): 2 µg/mL (≈ 2.44 µM)
- MIC (Staphylococcus aureus [4]): 4 µg/mL (≈ 4.88 µM)
- MIC (Streptococcus pyogenes [5]): 1 µg/mL (≈ 1.22 µM)
- MIC (Streptococcus pneumoniae [6]): 2 µg/mL (≈ 2.44 µM)
- MIC (Streptococcus pneumoniae [7]): > 64 µg/mL
- MIC (Streptococcus pneumoniae [8]): 1 µg/mL (≈ 1.22 µM)
- MIC (Staphylococcus aureus [9]): 4 µg/mL (≈ 4.88 µM)

SMILES: NCCNc1cc2c(=O)c(C(=O)O)cn(C3CC3)c2cc1Cl
- MIC (Haemophilus influenzae): > 64 µg/mL
- MIC (Staphylococcus aureus [4]): > 64 µg/mL
- MIC (Streptococcus pyogenes [5]): > 64 µg/mL
- MIC (Streptococcus pneumoniae [8]): > 64 µg/mL

SMILES: NCCNc1cc2c(cc1F)c(=O)c(C(=O)O)cn2C1CC1
- MIC (Haemophilus influenzae): > 64 µg/mL
- MIC (Staphylococcus aureus [4]): > 64 µg/mL
- MIC (Streptococcus pyogenes [5]): > 64 µg/mL
- MIC (Streptococcus pneumoniae [8]): > 64 µg/mL

SMILES: O=C(O)c1cn(C2CC2)c2cc(N3CCNCC3)c(F)cc2c1=O [CIPROFLOXACIN]
- MIC (Haemophilus influenzae): ≤ 0.125 µg/mL
- MIC (Streptococcus pyogenes [1]): 0.5 µg/mL (≈ 1.51 µM)
- MIC (Streptococcus pyogenes [3]): ≤ 0.125 µg/mL
- MIC (Staphylococcus aureus [4]): ≤ 0.125 µg/mL
- MIC (Streptococcus pyogenes [5]): 2 µg/mL (≈ 6.04 µM)
- MIC (Streptococcus pneumoniae [6]): 0.25 µg/mL (≈ 0.754 µM)
- MIC (Streptococcus pneumoniae [7]): 0.25 µg/mL (≈ 0.754 µM)
- MIC (Streptococcus pneumoniae [8]): ≤ 0.125 µg/mL

SMILES: O=C(O)c1cn(C2CC2)c2ccc(N3CCNCC3)cc2c1=O
- MIC (Haemophilus influenzae): > 64 µg/mL
- MIC (Staphylococcus aureus [4]): > 64 µg/mL
- MIC (Streptococcus pyogenes [5]): > 64 µg/mL
- MIC (Streptococcus pneumoniae [8]): > 64 µg/mL

SMILES: C=CCO[C@]1(C)C[C@@H](C)NC(=O)[C@H](C)[C@@H](O)[C@](C)(O)[C@@H](CC)OC(=O)[C@H](C)[C@@H](OC(=O)CCN(C)CCc2ccc([N+](=O)[O-])cc2)[C@H](C)[C@H]1O[C@@H]1O[C@H](C)C[C@H](N(C)C)[C@H]1O
- MIC (Haemophilus influenzae): 8 µg/mL (≈ 9.25 µM)
- MIC (Streptococcus pyogenes [1]): > 64 µg/mL
- MIC (Staphylococcus aureus [2]): > 64 µg/mL
- MIC (Staphylococcus aureus [4]): 0.5 µg/mL (≈ 0.578 µM)
- MIC (Streptococcus pyogenes [5]): ≤ 0.125 µg/mL
- MIC (Streptococcus pneumoniae [7]): > 64 µg/mL
- MIC (Streptococcus pneumoniae [8]): ≤ 0.125 µg/mL
- MIC (Staphylococcus aureus [9]): 0.5 µg/mL (≈ 0.578 µM)
